Reference: US12157736B2, “Spiro-lactam NMDA modulators and methods of using same” (Tenacia Biotechnology (Hong Kong) Co., Limited, priority 2016, dated 2024)

Assays:
NMDAR2B = target: T1, NMDAR2B (Homo sapiens, UniProt Q13224); experiment: NMDAR agonist assay, [3H]MK-801 binding, NMDAR2B expressing HEK cell membranes; assay type: biochemical; conditions: 50 μM glutamate; for Emax: read-out: NMDAR2B: % maximal [3H]MK-801 binding relative to 1 mM glycine; for EC50: read-out: NMDAR2B log EC50 (converted)
T1 construct: expressed in transfected cells; host or cells: HEK cells (membrane extract)
Protocol: (§1) Assays were conducted as described by Moskal et al., “GLYX-13: a monoclonal antibody-derived peptide that acts as an N-methyl-D-aspartate receptor modulator,” Neuropharmacology, 49, 1077-87, 2005. These studies were designed to determine if the test compounds act to facilitate NMDAR activation in NMDAR2A, NMDAR2B, NMDAR2C or NMDAR2D expressing HEK cell membranes as measured by increases in [^3H]MK-801 binding.
(§2) In the assay, 300 μg of NMDAR expressing HEK cell membrane extract protein was preincubated for 15 minutes at 25° C. in the presence of saturating concentrations of glutamate (50 μM) and varying concentrations of test compound (1×10^−15M−1×10^−7M), or 1 mM glycine. Following the addition of […] of [^3H]MK-801 (22.5 Ci/mmol), reactions were again incubated for 15 minutes at 25° C. (nonequilibrium conditions). Bound and free [^3H]MK-801 were separated via rapid filtration using a Brandel apparatus.
(§3) In analyzing the data, the DPM (disintegrations per minute) of [^3H]MK-801 remaining on the filter were measured for each concentration of test compound or for 1 mM glycine. The DPM values for each concentration of a ligand (N=2) were averaged. The baseline value was determined from the best fit curve of the DPM values modeled using the GraphPad program and the log(agonist) vs. response (three parameters) algorithm was then subtracted from all points in the dataset. The % maximal [3H]MK-801 binding was then calculated relative to that of 1 mM glycine: all baseline subtracted DPM values were divided by the average value for 1 mM glycine. The EC50 and % maximal activity were then obtained from the best fit curve of the % maximal [3H]MK-801 binding data modelled using the GraphPad program and the log(agonist) vs. response (three parameters) algorithm.
(§4) The tables below summarize the results for the wild type […] NMDAR2A, NMDAR2B, NMDAR2C, and NMDAR2D, and whether the compound is not an agonist (−), is an agonist (+), or is a strong agonist (++), where column A is based on the % maximal [3H]MK-801 binding relative to 1 mM glycine (−=0; <100%=+; and >100%=++); and column B is based on log EC50 values (0=−; ≥1×10^−9 M (e.g., −8)=+; and <1×10^−9 M (e.g., −10)=++).

NMDAR2A = target: T2, NMDAR2A (Homo sapiens, UniProt Q12879); experiment: NMDAR agonist assay, [3H]MK-801 binding, NMDAR2A expressing HEK cell membranes; assay type: biochemical; conditions: 50 μM glutamate; for EC50: read-out: NMDAR2A: log EC50 (converted); for Emax: read-out: NMDAR2A: % maximal [3H]MK-801 binding relative to 1 mM glycine
T2 construct: expressed in transfected cells; host or cells: HEK cells (membrane extract)
Protocol: as §1, §2, §3, §4

T2 sequence (Q12879 23-1464, species assumed, other chains not shown): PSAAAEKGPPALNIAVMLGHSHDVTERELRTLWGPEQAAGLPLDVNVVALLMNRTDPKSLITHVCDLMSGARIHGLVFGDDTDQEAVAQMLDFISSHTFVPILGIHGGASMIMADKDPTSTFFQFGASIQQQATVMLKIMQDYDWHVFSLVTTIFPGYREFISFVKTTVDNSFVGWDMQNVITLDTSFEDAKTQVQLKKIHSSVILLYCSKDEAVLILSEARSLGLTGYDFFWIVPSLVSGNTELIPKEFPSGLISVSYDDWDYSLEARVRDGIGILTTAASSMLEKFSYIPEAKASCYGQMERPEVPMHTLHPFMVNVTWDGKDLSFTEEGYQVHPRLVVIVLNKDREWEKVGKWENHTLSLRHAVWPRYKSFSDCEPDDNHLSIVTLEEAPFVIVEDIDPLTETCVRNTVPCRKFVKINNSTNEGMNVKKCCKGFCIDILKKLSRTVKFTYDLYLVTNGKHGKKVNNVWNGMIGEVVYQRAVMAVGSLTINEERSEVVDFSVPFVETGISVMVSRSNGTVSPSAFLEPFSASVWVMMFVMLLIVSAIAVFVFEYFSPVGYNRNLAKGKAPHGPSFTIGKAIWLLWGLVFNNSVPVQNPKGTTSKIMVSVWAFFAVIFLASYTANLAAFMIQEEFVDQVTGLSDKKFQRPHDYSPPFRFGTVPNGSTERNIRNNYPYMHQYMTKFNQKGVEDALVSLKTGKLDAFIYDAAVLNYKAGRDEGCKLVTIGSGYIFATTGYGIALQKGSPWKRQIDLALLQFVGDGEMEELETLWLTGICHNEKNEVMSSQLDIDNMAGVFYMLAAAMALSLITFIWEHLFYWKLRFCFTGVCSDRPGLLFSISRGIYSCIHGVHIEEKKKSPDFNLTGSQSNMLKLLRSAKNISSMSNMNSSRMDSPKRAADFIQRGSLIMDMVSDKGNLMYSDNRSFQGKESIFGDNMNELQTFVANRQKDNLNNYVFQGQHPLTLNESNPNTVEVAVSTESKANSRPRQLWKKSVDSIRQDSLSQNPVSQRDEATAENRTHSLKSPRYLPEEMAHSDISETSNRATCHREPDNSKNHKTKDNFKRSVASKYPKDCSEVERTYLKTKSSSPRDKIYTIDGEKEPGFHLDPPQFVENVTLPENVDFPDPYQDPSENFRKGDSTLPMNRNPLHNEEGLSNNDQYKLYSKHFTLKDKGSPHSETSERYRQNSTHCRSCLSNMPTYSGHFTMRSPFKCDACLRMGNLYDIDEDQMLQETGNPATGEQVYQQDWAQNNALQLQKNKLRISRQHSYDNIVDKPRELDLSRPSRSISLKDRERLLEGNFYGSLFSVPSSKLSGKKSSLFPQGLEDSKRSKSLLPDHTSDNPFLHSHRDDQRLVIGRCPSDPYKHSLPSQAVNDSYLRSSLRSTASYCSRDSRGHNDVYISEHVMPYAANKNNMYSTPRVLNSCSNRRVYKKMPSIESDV
T1 sequence (Q13224 27-1484, species assumed, other chains not shown): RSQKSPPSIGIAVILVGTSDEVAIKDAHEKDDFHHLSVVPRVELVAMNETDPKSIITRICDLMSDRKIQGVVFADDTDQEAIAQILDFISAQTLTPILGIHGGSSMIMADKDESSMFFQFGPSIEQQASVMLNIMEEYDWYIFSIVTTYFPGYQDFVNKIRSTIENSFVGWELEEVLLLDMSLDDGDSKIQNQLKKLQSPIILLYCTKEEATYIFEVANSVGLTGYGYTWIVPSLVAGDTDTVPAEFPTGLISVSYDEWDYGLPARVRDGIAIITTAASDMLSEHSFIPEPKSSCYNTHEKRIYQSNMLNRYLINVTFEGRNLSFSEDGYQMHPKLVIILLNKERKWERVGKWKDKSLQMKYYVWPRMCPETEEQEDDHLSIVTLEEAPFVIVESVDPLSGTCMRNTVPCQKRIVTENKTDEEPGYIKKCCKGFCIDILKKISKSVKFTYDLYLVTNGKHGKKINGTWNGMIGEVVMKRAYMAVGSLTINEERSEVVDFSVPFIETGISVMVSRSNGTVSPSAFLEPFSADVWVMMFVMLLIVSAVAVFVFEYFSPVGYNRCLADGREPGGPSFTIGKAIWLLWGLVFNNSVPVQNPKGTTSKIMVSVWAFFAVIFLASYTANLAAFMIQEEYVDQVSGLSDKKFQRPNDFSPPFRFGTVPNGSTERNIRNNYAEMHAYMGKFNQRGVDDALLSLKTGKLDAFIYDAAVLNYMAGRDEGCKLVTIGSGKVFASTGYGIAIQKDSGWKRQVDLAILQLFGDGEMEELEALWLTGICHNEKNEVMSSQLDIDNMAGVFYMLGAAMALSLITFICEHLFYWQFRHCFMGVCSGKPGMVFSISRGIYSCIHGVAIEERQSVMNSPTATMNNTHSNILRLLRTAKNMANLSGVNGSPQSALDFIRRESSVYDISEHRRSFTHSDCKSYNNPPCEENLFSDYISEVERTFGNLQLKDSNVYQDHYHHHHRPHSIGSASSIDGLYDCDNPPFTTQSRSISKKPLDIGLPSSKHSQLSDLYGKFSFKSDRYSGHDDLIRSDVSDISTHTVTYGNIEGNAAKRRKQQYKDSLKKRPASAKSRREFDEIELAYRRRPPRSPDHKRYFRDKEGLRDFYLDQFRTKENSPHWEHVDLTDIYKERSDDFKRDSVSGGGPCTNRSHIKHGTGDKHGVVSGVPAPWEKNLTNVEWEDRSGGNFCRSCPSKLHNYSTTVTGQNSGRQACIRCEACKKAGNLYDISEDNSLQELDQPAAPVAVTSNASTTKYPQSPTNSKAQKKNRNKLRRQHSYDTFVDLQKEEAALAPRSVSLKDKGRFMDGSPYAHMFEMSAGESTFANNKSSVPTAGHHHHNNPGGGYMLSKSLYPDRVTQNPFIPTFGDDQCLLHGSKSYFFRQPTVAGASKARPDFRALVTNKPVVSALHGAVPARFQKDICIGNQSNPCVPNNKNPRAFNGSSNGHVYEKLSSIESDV

Row | Emax (NMDAR2A) | Emax (NMDAR2B) | EC50 (NMDAR2B) | SMILES | also measured
1 |  |  |  | CC1CC(=O)N(c2ccc(F)cc2)C12CN(Cc1ccccc1)C2=O (single isomer, unassigned) [BX, 2-benzyl-5-(4-fluorophenyl)-8-methyl-2,5-diazaspiro[3.4]octane-1,6-dione] | NMDAR2B: % maximal [3H]MK-801 binding relative to 1 mM glycine (NMDAR2B): + (<100%=+); EC50 (NMDAR2A): > 100 nM
2 | < 100% |  |  | C[C@@H](O)[C@@H](C(=O)N(C)C)N1CC2(CCNC(=O)C2)C1=O (single isomer, unassigned) [CD] | 
3 |  | > 100% |  | COc1ccc(CN2CC3(CCN(C)C(=O)C3)C2=O)cc1 (single isomer, unassigned) [CJ, 2-(4-methoxybenzyl)-7-methyl-2,7-diazaspiro[3.5]nonane-1,6-dione] | 
4 |  | 0% | > 100 nM | COc1ccc(CN2CC3(CCNC(=S)C3)C2=S)cc1 (single isomer, unassigned) [CO, 2-(4-methoxybenzyl)-2,7-diazaspiro[3.5]nonane-1,6-dithione] | 
5 |  | < 100% |  | COc1ccc(CN2CC3(CCNC(=S)C3)C2=S)cc1 (single isomer, unassigned) [CP, 2-(4-methoxybenzyl)-2,7-diazaspiro[3.5]nonane-1,6-dithione] | 
6 |  | > 100% |  | COc1ccc(CN2CC3(CCN(CC(C)C)C(=O)C3)C2=O)cc1 (single isomer, unassigned) [CS, 7-isobutyl-2-(4-methoxybenzyl)-2,7-diazaspiro[3.5]nonane-1,6-dione] | 
7 |  | 0% | > 100 nM | COc1ccc(CN2CC3(CCN(CC(C)C)C(=O)C3)C2=O)cc1 (single isomer, unassigned) [CT, 7-isobutyl-2-(4-methoxybenzyl)-2,7-diazaspiro[3.5]nonane-1,6-dione] | 
8 | 0% |  |  | O=C1CC2(CCN1)CN(Cc1ccccc1)C2=O (single isomer, unassigned) [CU, 2-benzyl-2,7-diazaspiro[3.5]nonane-1,6-dione] | EC50 (NMDAR2A): > 100 nM
9 | < 100% |  |  | O=C1CC2(CCN1)CN(Cc1ccccc1)C2=O (single isomer, unassigned) [CV, 2-benzyl-2,7-diazaspiro[3.5]nonane-1,6-dione] | 
10 |  |  | > 100 nM | CCN1CCC2(CC1=O)CN(Cc1ccccc1)C2=O (single isomer, unassigned) [CY, 2-benzyl-7-ethyl-2,7-diazaspiro[3.5]nonane-1,6-dione] | 
11 | < 100% |  |  | NC(=O)CN1CC2(CCNC(=O)C2)C1=O (single isomer, unassigned) [DC, 2-(1,6-dioxo-2,7-diazaspiro[3.5]nonan-2-yl)acetamide] | 
12 | 0% |  |  | NC(=O)CN1CC2(CCNC(=O)C2)C1=O (single isomer, unassigned) [DD, 2-(1,6-dioxo-2,7-diazaspiro[3.5]nonan-2-yl)acetamide] | EC50 (NMDAR2A): > 100 nM
13 |  | 0% | > 100 nM | CN1CC2(CCNC(=O)C2)C1=O (single isomer, unassigned) [DG, 2-methyl-2,7-diazaspiro[3.5]nonane-1,6-dione] | 
14 |  | > 100% |  | CN1CC2(CCNC(=O)C2)C1=O (single isomer, unassigned) [DH, 2-methyl-2,7-diazaspiro[3.5]nonane-1,6-dione] | 
15 | < 100% |  |  | CC1CC(=O)N(C)C12CN(CC(N)=O)C2=O (single isomer, unassigned) [DI, 2-(5,8-dimethyl-1,6-dioxo-2,5-diazaspiro[3.4]octan-2-yl)acetamide] | 
16 | 0% |  |  | CC1CC(=O)N(C)C12CN(CC(N)=O)C2=O (single isomer, unassigned) [DJ, 2-(5,8-dimethyl-1,6-dioxo-2,5-diazaspiro[3.4]octan-2-yl)acetamide] | EC50 (NMDAR2A): > 100 nM
17 |  |  | > 100 nM | CC1CC(=O)N(c2ccc(F)cc2)C12CN([C@H](C(N)=O)[C@@H](C)O)C2=O (single isomer, unassigned) [DK] | 
18 |  |  | > 100 nM | CC1C(O)C(=O)N(C)C12CN(Cc1ccccc1)C2=O (single isomer, unassigned) [DM, 2-benzyl-7-hydroxy-5,8-dimethyl-2,5-diazaspiro[3.4]octane-1,6-dione] | 
